Assay results: ChEMBL document CHEMBL2146373, “How to blast osteoblasts? Novel dicarba analogues of amylin-(1-8) to treat osteoporosis” (Bioorg Med Chem, 2012)
Activity calls are given as the source filed them. The rule behind the calls is not given here.

System: Osteoblast
Test: Osteoblast activity in neonatal rat calvarie-derived primary osteoblasts assessed as [3H]thymidine incorporation at 10^-10 to 10^-8 M by beta counting
Assay type: functional, cell-based

Row | Structure (SMILES) | Activity
1 | C[C@H](NC(=O)[C@@H]1CCCCNC(=O)OCC=CCOC(=O)NCCCC[C@H](NC(=O)[C@@H](N)CCCCN)C(=O)N[C@@H](CC(N)=O)C(=O)N[C@@H]([C@@H](C)O)C(=O)N[C@@H](C)C(=O)N[C@@H]([C@@H](C)O)C(=O)N1)C(N)=O (mixture of isomers; 5b) | Active
2 | C[C@H](NC(=O)[C@@H]1CC=CC[C@H](NC(=O)[C@@H](N)CCCCN)C(=O)N[C@@H](CC(N)=O)C(=O)N2CCC[C@H]2C(=O)N[C@@H](C)C(=O)N[C@@H]([C@@H](C)O)C(=O)N1)C(N)=O (mixture of isomers; 2b) | inactive
3 | C[C@H](NC(=O)[C@@H]1CC=CC[C@H](NC(=O)[C@@H](N)CCCCN)C(=O)N[C@@H](CC(N)=O)C(=O)N[C@@H]([C@@H](C)O)C(=O)N[C@@H](C)C(=O)N[C@@H]([C@@H](C)O)C(=O)N1)C(N)=O (mixture of isomers) | Active
4 | C[C@H](NC(=O)[C@@H]1CCCCNC(=O)OCC=CCOC(=O)NCCCC[C@H](NC(=O)[C@@H](N)CCCCN)C(=O)N[C@@H](CC(N)=O)C(=O)N[C@@H]([C@@H](C)O)C(=O)N[C@@H](C)C(=O)N[C@@H]([C@@H](C)O)C(=O)N1)C(N)=O (mixture of isomers; 5a) | Active
5 | C[C@H](NC(=O)[C@@H]1CC=CC[C@H](NC(=O)[C@@H](N)CCCCN)C(=O)N[C@@H](CC(N)=O)C(=O)N2CCC[C@H]2C(=O)N[C@@H](C)C(=O)N[C@@H]([C@@H](C)O)C(=O)N1)C(N)=O (mixture of isomers; 2a) | inactive
